Data as given in patent publication US9550742B2, “11-OXO-10,11-dihydrodibenzo[B,F][1,4]thiazepine S-oxide derivatives and their use as dopamine D2 receptor antagonists” (The United States of America, as Represented by the …, priority 2013, dated 2017).
Where two headings read alike, the source gives them in different places.

How the values were obtained:
SERT = SERT (Homo sapiens, UniProt P31645); assay: Affinity profile panel: SERT; details: inhibition of binding
Description: Antipsychotic drugs (depending on the specific drug) typically interact with a range of serotonergic, adrenergic, histaminergic, and muscarinic receptors.

[1] = target: D2L human dopamine receptors (Homo sapiens, UniProt P14416); assay: D2 binding assay ([^3H]methylspiperone, HEK membranes)
Experimental: Compounds were tested for differences in affinity between three dopamine receptor subtypes using radio-labeled ligand binding assays. The first assay determined the Ki value of the compounds for the D2 DAR subtype using stable HEK cell lines expressing the D2L human dopamine receptors (Codex Biosciences, Gaithersburg, Md.). Cells were cultured in Dulbecco's modified Eagle's Medium containing 10% FBS, 1,000 units/mL Penicillin, 1,000 mg/mL Streptomycin, 100 mM Sodium Pyruvate, 1 μg/mL Gentamicin, and […] G418. All cells were maintained at 37° C. in 5% CO2 and 90% humidity. For radioligand binding assays, cells were removed mechanically using calcium and magnesium-free Earle's Balanced Salt Solution (EBSS(−)). Intact cells were collected by centrifugation and then lysed with 5 mM Tris-HCl and 5 mM MgCl2 at pH 7.4 in a glass homogenizer. Homogenates were centrifuged at 20,000×g for 30 minutes. The membranes were re-suspended in EBSS (pH 7.4) and protein concentration was determined using a Bradford assay according to the manufacturer's recommendations (Bio-Rad). Membranes were diluted to 24 mg/mL. […] Membrane preparations were incubated for 90 min at room temperature with various concentrations of radioligand in a reaction volume of 250 μL EBSS containing 200 mM sodium metabisulfite. Non-specific binding was determined in the presence of 4 μM (+)-butaclamol. Bound ligand was separated from unbound by filtration through GF/C filters using a PerkinElmer cell harvester with ice cold EBSS (4 washes) and quantified on a Top-count (PerkinElmer) after addition of scintillation solution. […] In order to determine the affinity of a given compound for a receptor type, competition-binding assays were performed. […] Reactions were incubated, terminated, and quantified as indicated above.

D2 DAR = target: T1, D2 DAR (Homo sapiens, UniProt P14416); assay: D2 Ca^2+ screen assay (calcium accumulation, HEK293 T-REx with Gqi5); assay type: cell-based
T1 construct: expressed in transfected cells; host or cells: HEK293 T-REx, Tet-inducible, with chimeric G-protein Gqi5
Experimental: The resting concentration of calcium ions (Ca^2+) in the cells' cytoplasm is normally maintained in the range of 10-100 nM. To maintain this low concentration, Ca^2+ is actively pumped from the cytosol to the extracellular space and into the endoplasmic reticulum (ER), and sometimes into the mitochondria. Signaling occurs when the cell is stimulated to release Ca^2+ from intracellular stores. The most common signaling pathway that increases cytoplasmic calcium concentration is the phospholipase C (PLC) pathway. […] IP3 diffuses to the ER, binds to its receptor (IP3 receptor), which is a Ca^2+ channel and, thus, releases Ca^2+ from the ER to the cytosol. To measure this cytosolic Ca^2+ accumulation, we used the Screen Quest™ Fluo-8 Calcium Assay Kit (AAT Bioquest, Sunnyvale, Calif.). Acetoxymethyl (AM) esters bound to Fluo-8™ dye are non-polar molecules that easily cross live cell membranes transporting the dye inside the cell, and are then rapidly hydrolyzed by cellular esterases inside live cells. As Fluo-8™ is freed from AM esters, it binds to Ca^2+ and emits a fluorescent signal at 514 nm that escalates with increasing cytosolic Ca^2±. To measure this calcium flux signal, we used the Functional Drug Screening System (FDSS) (Hamamatsu, Japan), a high throughput screening device that allows optical detection of signal transmissions within living cells in a time-resolving fashion. […] Quest Fluo-8™ calcium reagent was freshly prepared prior to adding to the cells (lyophilized Fluo-8™ dye provided with the kit was re-suspended in 200 μL DMSO as a 500× stock and stored at −20° C.). 2 μL/well of Quest Fluo-8™ calcium dye diluted in HBSS +10 mM HEPES buffer (for every 10 mL buffer, 1 mL of 10× quencher provided in the kit and 20 μL of 500×DMSO stock dye were added) was added to cells with a Multi-Drop Combi (ThermoScientific) and incubated for 45-90 min in the dark at ambient temperature. Then, the plates were introduced into the FDSS where they were pinned with 23 nL of test compound or dopamine controls and were read by FDSS in non-stimulated mode for 180 sec for detection of agonists. […]

Beta2 = Beta2 (Homo sapiens, UniProt P07550); assay: Affinity profile panel: Beta2; details: inhibition of binding
5-HT1E = 5-HT1E (Homo sapiens, UniProt P28566); assay: Affinity profile panel: 5-HT1E; details: inhibition of binding
KOR = KOR (Homo sapiens, UniProt P41145); assay: Affinity profile panel: KOR; details: inhibition of binding
D4 = D4 (Homo sapiens, UniProt P21917); assay: Affinity profile panel: D4; details: inhibition of binding
Chain of D4 (P21917 whole entry): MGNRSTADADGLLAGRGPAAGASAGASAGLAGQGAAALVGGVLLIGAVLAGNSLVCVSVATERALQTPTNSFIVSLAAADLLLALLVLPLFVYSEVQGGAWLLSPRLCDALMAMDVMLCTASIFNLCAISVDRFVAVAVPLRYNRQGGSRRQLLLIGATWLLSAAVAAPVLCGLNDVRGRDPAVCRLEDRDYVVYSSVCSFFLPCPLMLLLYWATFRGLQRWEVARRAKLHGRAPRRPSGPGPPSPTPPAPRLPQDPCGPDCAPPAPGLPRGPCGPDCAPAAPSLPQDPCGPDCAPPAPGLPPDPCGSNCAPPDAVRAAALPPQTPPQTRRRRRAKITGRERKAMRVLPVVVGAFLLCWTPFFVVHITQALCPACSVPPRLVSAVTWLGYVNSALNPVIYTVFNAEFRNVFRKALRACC

Chain of D2L human dopamine receptors (P14416 whole entry): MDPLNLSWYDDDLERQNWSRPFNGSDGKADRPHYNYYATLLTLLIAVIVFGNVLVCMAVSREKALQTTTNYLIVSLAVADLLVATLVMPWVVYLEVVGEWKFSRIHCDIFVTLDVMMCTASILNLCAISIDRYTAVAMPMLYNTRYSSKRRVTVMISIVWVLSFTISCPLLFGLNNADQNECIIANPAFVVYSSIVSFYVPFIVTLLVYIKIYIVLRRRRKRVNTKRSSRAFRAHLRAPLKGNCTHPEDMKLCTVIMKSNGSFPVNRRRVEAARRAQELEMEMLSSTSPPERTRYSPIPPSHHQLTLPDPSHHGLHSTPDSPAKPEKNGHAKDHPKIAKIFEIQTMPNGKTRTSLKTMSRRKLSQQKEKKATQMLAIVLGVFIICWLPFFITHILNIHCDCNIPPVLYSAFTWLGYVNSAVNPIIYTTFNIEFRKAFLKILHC
T1 sequence (P14416 whole entry): as above
Chain of Beta2 (P07550 whole entry): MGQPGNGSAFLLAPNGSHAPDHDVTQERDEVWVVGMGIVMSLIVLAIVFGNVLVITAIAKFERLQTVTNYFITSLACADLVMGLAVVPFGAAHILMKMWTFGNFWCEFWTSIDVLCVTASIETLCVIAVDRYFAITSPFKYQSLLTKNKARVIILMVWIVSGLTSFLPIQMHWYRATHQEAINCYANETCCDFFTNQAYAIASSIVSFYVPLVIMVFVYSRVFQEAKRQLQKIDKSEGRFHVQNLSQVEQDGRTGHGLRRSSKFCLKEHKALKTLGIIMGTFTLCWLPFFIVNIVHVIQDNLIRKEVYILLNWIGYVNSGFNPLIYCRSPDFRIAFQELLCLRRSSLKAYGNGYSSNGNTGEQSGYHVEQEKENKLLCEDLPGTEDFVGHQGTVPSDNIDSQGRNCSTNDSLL
Chain of KOR (P41145 whole entry): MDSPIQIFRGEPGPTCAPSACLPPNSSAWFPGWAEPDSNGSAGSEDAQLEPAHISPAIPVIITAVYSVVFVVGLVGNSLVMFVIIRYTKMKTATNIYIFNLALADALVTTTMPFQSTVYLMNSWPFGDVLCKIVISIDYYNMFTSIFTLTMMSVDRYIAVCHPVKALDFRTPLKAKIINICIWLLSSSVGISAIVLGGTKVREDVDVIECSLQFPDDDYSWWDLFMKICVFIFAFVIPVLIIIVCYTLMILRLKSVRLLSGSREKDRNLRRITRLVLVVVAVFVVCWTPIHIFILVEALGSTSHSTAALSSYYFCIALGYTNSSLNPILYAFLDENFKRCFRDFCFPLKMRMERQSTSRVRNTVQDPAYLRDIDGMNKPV
Chain of SERT (P31645 whole entry, species assumed): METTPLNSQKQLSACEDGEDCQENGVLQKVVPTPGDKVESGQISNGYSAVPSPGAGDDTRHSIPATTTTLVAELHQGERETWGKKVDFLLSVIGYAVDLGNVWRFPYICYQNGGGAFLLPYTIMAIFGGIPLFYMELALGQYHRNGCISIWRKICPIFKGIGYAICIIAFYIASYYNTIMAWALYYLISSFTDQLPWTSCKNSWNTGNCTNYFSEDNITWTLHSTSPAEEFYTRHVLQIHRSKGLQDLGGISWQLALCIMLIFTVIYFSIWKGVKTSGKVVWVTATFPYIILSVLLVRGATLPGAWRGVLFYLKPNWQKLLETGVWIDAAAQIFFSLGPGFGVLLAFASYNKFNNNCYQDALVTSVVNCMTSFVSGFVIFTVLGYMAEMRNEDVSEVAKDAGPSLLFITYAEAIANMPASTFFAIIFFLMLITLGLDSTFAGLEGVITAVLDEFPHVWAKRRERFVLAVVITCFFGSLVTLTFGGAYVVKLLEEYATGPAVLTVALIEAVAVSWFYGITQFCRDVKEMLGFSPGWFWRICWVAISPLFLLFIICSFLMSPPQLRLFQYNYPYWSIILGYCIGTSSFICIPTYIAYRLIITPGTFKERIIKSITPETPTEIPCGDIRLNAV
Chain of 5-HT1E (P28566 whole entry, species assumed): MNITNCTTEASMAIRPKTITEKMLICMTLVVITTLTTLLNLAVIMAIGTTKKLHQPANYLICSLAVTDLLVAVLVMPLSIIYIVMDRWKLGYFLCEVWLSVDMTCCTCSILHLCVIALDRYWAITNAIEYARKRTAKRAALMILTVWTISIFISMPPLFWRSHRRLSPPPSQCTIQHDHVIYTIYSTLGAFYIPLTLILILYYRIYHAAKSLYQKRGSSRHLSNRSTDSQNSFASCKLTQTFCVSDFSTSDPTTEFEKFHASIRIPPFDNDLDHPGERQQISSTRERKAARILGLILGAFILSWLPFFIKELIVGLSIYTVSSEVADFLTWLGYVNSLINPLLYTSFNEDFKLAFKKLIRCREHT

`CN1C(=O)c2ccccc2[S@+]([O-])c2ccc(C(=O)NCCc3cccs3)cc21` [Compound 55, 10-Methyl-11-oxo-N-(2-(thiophen-2-yl)ethyl)-10,11-dihydrodibenzo[b,f][1,4]thiazepine-8-carboxamide 5-(S)-oxide] was tested, and the “Inhibition (%) SERT” value (SERT) was 4.8%, the Ki [1] was 100 nM and the “D3/D2 binding Ki ratio” value ([1]; ratio of D3 (Example 5) to D2 (Example 3) binding assay) was 29.0. The AC50 (D2 DAR; dopamine D2 calcium release assay of Example 1, read-out: Ca^2+ AC50) was < 1000 nM, the AC50 (D2 DAR; dose response curve, read-out: D2 Ca^2+ assay AC50) was 70 nM and the “Inhibition (%) Beta2” value (Beta2) was −13.2%. The “Inhibition (%) 5-HT1E” value (5-HT1E) was 9.9%, the “Inhibition (%) KOR” value (KOR) was 18.2% and the “Inhibition (%) D4” value (D4) was 32.2%.
